Results taken from PubChem BioAssay (NCI).
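Each compound was tested at five concentrations against cells in 96-well plates for 48 hours. TGI denotes the concentration required for complete inhibition of growth.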

Assays:
Experiment in all cases: DTP human tumour cell line panel, 48 h
OVCAR-4 ovarian = test system: OVCAR-4 ovarian
SN12C renal = test system: SN12C renal
DU-145 prostate = test system: DU-145 prostate
MDA-MB-435 = test system: MDA-MB-435
HL-60(TB) leukemia = test system: HL-60(TB) leukemia
HS 578T breast = test system: HS 578T breast
HOP-62 NSCLC = test system: HOP-62 NSCLC
U251 CNS = test system: U251 CNS
NCI-H226 lung = test system: NCI-H226 lung
COLO 205 colon = test system: COLO 205 colon
EKVX NSCLC = test system: EKVX NSCLC
NCI-H522 lung = test system: NCI-H522 lung
OVCAR-3 ovarian = test system: OVCAR-3 ovarian
PC-3 prostate = test system: PC-3 prostate
SF-539 CNS = test system: SF-539 CNS
RPMI-8226 leukemia = test system: RPMI-8226 leukemia
NCI/ADR-RES ovarian = test system: NCI/ADR-RES ovarian
HOP-92 NSCLC = test system: HOP-92 NSCLC
KM12 colon = test system: KM12 colon
K-562 leukemia = test system: K-562 leukemia
ACHN renal = test system: ACHN renal
HT29 colon = test system: HT29 colon
SNB-75 CNS = test system: SNB-75 CNS
RXF 393 renal = test system: RXF 393 renal
BT-549 breast = test system: BT-549 breast
SF-295 CNS = test system: SF-295 CNS
UACC-62 melanoma = test system: UACC-62 melanoma
MALME-3M melanoma = test system: MALME-3M melanoma
T-47D breast = test system: T-47D breast
SK-MEL-5 melanoma = test system: SK-MEL-5 melanoma
MDA-MB-231 breast = test system: MDA-MB-231 breast
CAKI-1 renal = test system: CAKI-1 renal
HCT-116 colon = test system: HCT-116 colon
SF-268 CNS = test system: SF-268 CNS
M14 melanoma = test system: M14 melanoma
OVCAR-8 ovarian = test system: OVCAR-8 ovarian
SK-MEL-2 melanoma = test system: SK-MEL-2 melanoma
A498 renal = test system: A498 renal
IGROV1 ovarian = test system: IGROV1 ovarian
MOLT-4 leukemia = test system: MOLT-4 leukemia
HCC-2998 colon = test system: HCC-2998 colon
TK-10 renal = test system: TK-10 renal
SNB-19 CNS = test system: SNB-19 CNS
A549 NSCLC = test system: A549 NSCLC
SR leukemia = test system: SR leukemia
MCF7 breast = test system: MCF7 breast
LOX IMVI melanoma = test system: LOX IMVI melanoma
786-0 renal = test system: 786-0 renal
SW-620 colon = test system: SW-620 colon
SK-OV-3 ovarian = test system: SK-OV-3 ovarian
OVCAR-5 ovarian = test system: OVCAR-5 ovarian
UACC-257 melanoma = test system: UACC-257 melanoma
SK-MEL-28 melanoma = test system: SK-MEL-28 melanoma
NCI-H23 lung = test system: NCI-H23 lung
MDA-N = test system: MDA-N
HCT-15 colon = test system: HCT-15 colon
CCRF-CEM leukemia = test system: CCRF-CEM leukemia
NCI-H460 lung = test system: NCI-H460 lung
UO-31 renal = test system: UO-31 renal

Measured: TGI

C[N+](C)(C)C(Cc1c[nH]c(=S)[nH]1)C(=O)O (centres undefined)
> 100 µM: OVCAR-4 ovarian | SN12C renal | DU-145 prostate | MDA-MB-435 | HL-60(TB) leukemia | HS 578T breast | HOP-62 NSCLC | U251 CNS | NCI-H226 lung | COLO 205 colon | EKVX NSCLC | NCI-H522 lung | OVCAR-3 ovarian | PC-3 prostate | SF-539 CNS | RPMI-8226 leukemia | NCI/ADR-RES ovarian | HOP-92 NSCLC | KM12 colon | K-562 leukemia | ACHN renal | HT29 colon | SNB-75 CNS | RXF 393 renal | BT-549 breast | SF-295 CNS | UACC-62 melanoma | MALME-3M melanoma | T-47D breast | SK-MEL-5 melanoma | MDA-MB-231 breast | CAKI-1 renal | HCT-116 colon | SF-268 CNS | M14 melanoma | OVCAR-8 ovarian | SK-MEL-2 melanoma | A498 renal | IGROV1 ovarian | MOLT-4 leukemia | HCC-2998 colon | TK-10 renal | SNB-19 CNS | A549 NSCLC | SR leukemia | MCF7 breast | LOX IMVI melanoma | 786-0 renal | SW-620 colon | SK-OV-3 ovarian | OVCAR-5 ovarian | UACC-257 melanoma | SK-MEL-28 melanoma | NCI-H23 lung | MDA-N | HCT-15 colon | CCRF-CEM leukemia | NCI-H460 lung | UO-31 renal
